Earlier results as cited in patent US20040063806A1, “Antimicrobial polyalphaolefin composition” (priority 2000, published 2004).
Like-named read-outs stand apart in the source and are kept apart here.

Tests used:
Loefferella mallei = Loefferella mallei NCTC 9674, medium NA
Mycobacterium smegmatis = Mycobacterium smegmatis NCTC 8152, medium BHI-A
Salmonella enteritidis = conditions: origin A, medium NA
Neisseria catarrhalis = Neisseria catarrhalis NCTC 3622, medium BA
Proteus mirabilis = Proteus mirabilis ATCC 14153, medium M-H
Trochophyton tonsurans = conditions: origin A, medium SMA
Loefferella pseudomallei = Loefferella pseudomallei NCIB 10230, medium NA
Sarcina lutee = Sarcina lutee NCTC 196, medium BHI-A
Aspergillus fumigatus = Aspergillus fumigatus ATCC 9197, medium SMA
Staphylococcus hyicus = Staphylococcus hyicus NCTC 7944, medium BHI-A
Salmonella paratyphi A = Salmonella paratyphi A NCTC 5322, medium NA
Candida paracrusei = conditions: origin A, medium SMA
Vibrio eltor = Vibrio eltor NCTC 8457, medium NA
[1] = test system: Pseudomonas fluorescencens; conditions: Pseudomonas fluorescencens NCTC 4755, medium NA
[2] = test system: Streptococcus saprophyticus; conditions: Streptococcus saprophyticus ATCC 15305, medium M-H
Alcaligenes faecalis = conditions: origin A, medium NA
Brucella intermedia = conditions: origin A, medium BR.A.A.
Salmonella typhimurium = Salmonella typhimurium NCTC 5710, medium NA
Vibrio cholerae = conditions: origin A, medium NA
Nocardia asteroides = Nocardia asteroides NCTC 6761, medium BHI-A
Micrococcus luteus = Micrococcus luteus ATCC 7468, medium M-H
Aerobacter arogenes = Aerobacter arogenes CITM 413, medium NA
[3] = test system: Streptococcus heamolyticus A; conditions: origin A, medium BHI-A
Shigella dysenteriae = Shigella dysenteriae NCTC 2249, medium NA
Bacteroides fragilis = Bacteroides fragilis ATCC 23745, medium M-H
[4] = test system: Trichophyton mentsgrophytes; conditions: Trichophyton mentsgrophytes ATCC 9533, medium SMA
Staphylococcus lactis = Staphylococcus lactis NCTC 8340, medium NA
Moraxella glucidolytica = conditions: origin A, medium NA
Candida utilis = conditions: origin A, medium SMA
Actinomyces israelii = Actinomyces israelii NCTC 8047, medium NA
Bacillus cereus = conditions: origin A, medium NA
[5] = test system: Pasteurella pseudotuberculosis; conditions: origin C-G, medium NA

Oc1cc(Cl)ccc1Oc1ccc(Cl)cc1Cl [IRGAGUARD B 1000, 2,4,4′-trichloro-2′-hydroxydiphenyl ether]
Microbiostatic effect (Loefferella mallei): 0.3 ppm
Microbiostatic effect (Mycobacterium smegmatis): 1.0 ppm
Microbiostatic effect (Salmonella enteritidis): 0.1 ppm
Microbiostatic effect (Salmonella paratyphi B; Salmonella paratyphi B NCTC 3176, medium NA): 0.3 ppm
Microbiostatic effect (Salmonella paratyphi B; Salmonella paratyphi B NCTC 5704, medium NA): 0.1 ppm
Microbiostatic effect (Neisseria catarrhalis): 33.0 ppm
Microbiostatic effect (Proteus mirabilis): 0.5 ppm
Microbiostatic effect (Trochophyton tonsurans): 10 ppm
Microbiostatic effect (Loefferella pseudomallei): 1.0 ppm
Microbiostatic effect (Candida tropicalis; Candida tropicalis DSM 1346, medium M-H): 10 ppm
Microbiostatic effect (Candida tropicalis; Candida tropicalis, origin A, medium SMA): 10 ppm
Microbiostatic effect (Sarcina lutee): 3.0 ppm
Microbiostatic effect (Escherichia coli; Escheria coli ATCC 8196, medium M-H): 0.02 ppm
Microbiostatic effect (Escherichia coli; Escherichia coli ATCC 4388, medium M-H, Serotype 0157): 0.1 ppm
Microbiostatic effect (Escherichia coli; Escherichia coli ATCC 9661, medium NA): 0.3 ppm
Microbiostatic effect (Escherichia coli; Escherichia coli ATCC 10536, medium BHI): 0.5 ppm
Microbiostatic effect (Escherichia coli; Escherichia coli ATCC 11229, medium M-H): 0.5 ppm
Microbiostatic effect (Escherichia coli; Escherichia coli ATCC 25922, medium M-H): 0.25 ppm
Microbiostatic effect (Escherichia coli; Escherichia coli ATCC 35150, medium M-H, Serotype 0157): 0.2 ppm
Microbiostatic effect (Escherichia coli; Escherichia coli ATCC 43889, medium M-H, Serotype 0157): 0.2 ppm
Microbiostatic effect (Escherichia coli; Escherichia coli ATCC 43890, medium M-H, Serotype 0157): 0.2 ppm
Microbiostatic effect (Escherichia coli; Escherichia coli NCTC 9663, medium NA): 0.3 ppm
Microbiostatic effect (Escherichia coli; Escherichia coli NCTC 11186, medium M-H, Tobramicin resistant): 0.5 ppm
Microbiostatic effect (Proteus vulgaris; Proteus vulgaris NCTC 4636, medium NA): 0.3 ppm
Microbiostatic effect (Proteus vulgaris; Proteus vulgaris NCTC 8313, medium NA): 0.1 ppm
Microbiostatic effect (Aspergillus fumigatus): 10 ppm
Microbiostatic effect (Staphylococcus hyicus): 0.03 ppm
Microbiostatic effect (Candida albicans; Candida albicans ATCC 10259, medium M): 3 ppm
Microbiostatic effect (Candida albicans; Candida albicans, origin A, medium SMA): 10 ppm
Microbiostatic effect (Salmonella paratyphi A): 0.3 ppm
Microbiostatic effect (Candida paracrusei): 4 ppm
Microbiostatic effect (Vibrio eltor): 10.0 ppm
Microbiostatic effect [1]: >100 ppm
Microbiostatic effect [2]: 0.125 ppm
Microbiostatic effect (Alcaligenes faecalis): >100 ppm
Microbiostatic effect (Brucella intermedia): 0.1 ppm
Microbiostatic effect (Salmonella typhimurium): 0.3 ppm
Microbiostatic effect (Enterococcus faecium; Enterococcus faecium ATCC 10541, medium BHI-A): 3.0 ppm
Microbiostatic effect (Enterococcus faecium; Enterococcus faedium ATCC 6057, medium M-H): 4.0 ppm
Microbiostatic effect (Enterococcus faecium; Enterococcus faedium NCTC 8619, medium BHI-A): 10.0 ppm
Microbiostatic effect (Shigella flexneri; Shigella flexneri NCTC 8192, medium NA): 0.3 ppm
Microbiostatic effect (Shigella flexneri; Shigella flexneri NCTC 8204, medium NA): 0.1 ppm
Microbiostatic effect (Vibrio cholerae): 10.0 ppm
Microbiostatic effect (Nocardia asteroides): 3.0 ppm
Microbiostatic effect (Micrococcus luteus): 4.0 ppm
Microbiostatic effect (Aerobacter arogenes): 1.0 ppm
Microbiostatic effect [3]: 3.0 ppm
Microbiostatic effect (Shigella dysenteriae): 0.1 ppm
Microbiostatic effect (Bacteroides fragilis): 2.0 ppm
Microbiostatic effect [4]: 1 ppm
Microbiostatic effect (Staphylococcus lactis): 3.0 ppm
Microbiostatic effect (Moraxella glucidolytica): 0.3 ppm
Microbiostatic effect (Candida utilis): 33 ppm
Microbiostatic effect (Actinomyces israelii): 1.0 ppm
Microbiostatic effect (Bacillus cereus): 3.0 ppm
Microbiostatic effect [5]: 10.0 ppm
